US20220332726A1, “NITROXIDE DERIVATIVE OF ROCK KINASE INHIBITOR” (VIVAVISION (SHANGHAI) LTD, priority 2020, published 2022)
pIC50: −log10 of the molar value.

Assays:
[1] = target: ROCK2 (Homo sapiens, UniProt O75116); assay: ROCK2 kinase inhibitor activity test (HTRF); assay type: biochemical; details: ROCK2 1 nM, substrate 500 nM, ATP 6 uM, 1.5 hours at room temperature, read-out: ROCK2 kinase inhibitor activities (IC50)
Description: ROCK2 Kinase Inhibitor Activity Test
1) 4× ROCK2 reaction solution, 4×ATP reaction solution, 4× substrate solution, and 4× compound solution were prepared according to experimental requirements.
2) 2.5 μL of 4× kinase solution and 2.5 μL of diluted 4× test compound solutions with different concentration gradients were added to a 384-well plate. 2 replicate wells were provided for each concentration, and an enzyme solution blank control group and a negative control group (DMSO group) were provided at the same time. Centrifugation was performed at 1000 rpm for 1 minute, and the enzyme and the compounds were mixed. 2.5 μL of 4× substrate solution was added to the 384-well plate, centrifugation was performed at 1000 rpm for 1 minute, 2.5 μL of 4× ATP solution was added to the 384-well plate, centrifugation was performed at 1000 rpm for 1 minute to start the enzyme reaction, and incubation was performed at room temperature for 1.5 hours.
The final concentration of each component of the ROCK2 reaction was: ROCK2: 1 nM, substrate: 500 nM, ATP: 6 uM, and the final concentration range of the test compounds was: 100 nM to 5 pM.
3) 4× Streptavidin-XL-665 detection solution was prepared according to experimental requirements.
4) After the enzyme reaction was completed, 5 ul of 4× Streptavidin-XL-665 detection solution was added to each well of the 384-well plate, and centrifugation was performed at 1000 rpm for 1 minute. 5 μL of 4×STK Antibody-cryptate detection antibody solution was added to each well of the 384-well plate, centrifugation was performed at 1000 rpm for 1 minute, and incubation was performed for 1 hour at room temperature.
5) After antibody incubation was completed, the signal value of each well was measured by the HTRF program on an Envision plate reader.
1) Taking the enzyme solution blank control group as 100% inhibition rate and the negative control group (DMSO group) as 0% inhibition rate, the percentage inhibition rate corresponding to each concentration of the test compound was calculated.
2) In the GraphPad Prism software, a nonlinear regression analysis was performed on the logarithm of the concentrations of the test compounds and the corresponding percentage inhibition rates to obtain the half-inhibitory concentrations (IC50) of the test compounds.
The ROCK2 kinase inhibitor activities (IC50) of the compounds detected by this method are as follows: […]

[2] = test system: Phospho-Myosin Light Chain2 (Ser19); assay: Cell activity test: MLC2 (Ser19) phosphorylation in A7R5 cells (Western blot); assay type: cell-based; details: starved 20 hours, compound treatment 60 minutes, MLC2 (Ser19) phosphorylation corrected with GAPDH, read-out: cell activities (IC50)
Description: Example 43: Cell Activity Test
1) The A7R5 cells in the logarithmic growth phase were digested, 2E5 cells per well were inoculated in a 6-well plate and incubated overnight at 37° C. with 5% CO2, and the cell culture medium was replaced with a starvation medium containing 0.05% FBS after 24 hours. The cells were starved for 20 hours.
2) The starvation medium was removed, the cells were treated with the prepared compound concentration gradient for 60 minutes, VIP-5021 (10 uM) was set as the positive control, and the DMSO group was set as the negative control.
3) After the compound treatment, the compound solutions were aspirated, washed with PBS two times, 100 ul of cell lysate was added to each well, the cells were gently scraped with a cell scraper, and the cells were transferred to a centrifuge tube and lysed on ice for 60 minutes.
4) After the lysis, centrifugation was performed at 4° C. and 14000 rpm for 15 minutes, the lysate supernatant was collected, protein quantification was performed using the BCA method, the protein concentration was adjusted, the loading buffer was added according to proportion, and treatment was performed at 100° C. for 10 minutes to denature the protein.
5) An electrophoresis equipment was assembled, 20 ug of total protein was loaded per sample, the voltage was fixed at 125 V, and electrophoresis was performed for 90 minutes. After the electrophoresis was completed, the membrane transfer system was assembled with a fixed current of 300 mA and the membrane was transferred for 120 minutes. After the membrane transfer was completed, the PVDF membrane was removed and washed with PBS two times. A blocking solution was added to block at room temperature for 60 minutes. The blocking solution was removed, a solution containing the primary antibody (Phospho-Myosin Light Chain2 (Ser19)) (antibody dilution ratio 1:1000) was added, GAPDH was selected as internal control, and incubation was performed overnight at 4° C.
6) Washing was performed with PBST three times, HRP-antibody containing the corresponding species (secondary antibody dilution ratio 1:2000) was added, incubation was performed at room temperature for 60 minutes, and washing was performed with PBST three times. HRP chemiluminescence substrate was prepared, and dropwisely added on the PVDF membrane based on 0.1 mL per square centimeter to react for 30 seconds, and the chemiluminescence signal was collected with a gel imager (ChemiDoc XRS+(BIO-RAD)).
7) Each band was quantitatively analyzed using image J software, and the phosphorylated protein level of Phospho-Myosin Light Chain2 (Ser19) in each sample was corrected using GAPDH expression as internal reference.
1) Taking the MLC2 (Ser19) protein phosphorylation level of the highest concentration compound sample as 100% inhibition rate, and taking the MLC2 (Ser19) protein phosphorylation level of the negative control group (DMSO group) as 0% inhibition rate, the percentage inhibition rate corresponding to each concentration of the test compounds was calculated.
2) In the GraphPad Prism software, a nonlinear regression analysis was performed on the logarithm of the concentrations of the test compounds and the corresponding percentage inhibition rates to obtain the half-inhibitory concentrations (IC50) of the cell levels of the test compounds.
The cell activities (IC50) of the compounds detected by this method are as follows: […]

Sequence of ROCK2 (O75116 whole entry): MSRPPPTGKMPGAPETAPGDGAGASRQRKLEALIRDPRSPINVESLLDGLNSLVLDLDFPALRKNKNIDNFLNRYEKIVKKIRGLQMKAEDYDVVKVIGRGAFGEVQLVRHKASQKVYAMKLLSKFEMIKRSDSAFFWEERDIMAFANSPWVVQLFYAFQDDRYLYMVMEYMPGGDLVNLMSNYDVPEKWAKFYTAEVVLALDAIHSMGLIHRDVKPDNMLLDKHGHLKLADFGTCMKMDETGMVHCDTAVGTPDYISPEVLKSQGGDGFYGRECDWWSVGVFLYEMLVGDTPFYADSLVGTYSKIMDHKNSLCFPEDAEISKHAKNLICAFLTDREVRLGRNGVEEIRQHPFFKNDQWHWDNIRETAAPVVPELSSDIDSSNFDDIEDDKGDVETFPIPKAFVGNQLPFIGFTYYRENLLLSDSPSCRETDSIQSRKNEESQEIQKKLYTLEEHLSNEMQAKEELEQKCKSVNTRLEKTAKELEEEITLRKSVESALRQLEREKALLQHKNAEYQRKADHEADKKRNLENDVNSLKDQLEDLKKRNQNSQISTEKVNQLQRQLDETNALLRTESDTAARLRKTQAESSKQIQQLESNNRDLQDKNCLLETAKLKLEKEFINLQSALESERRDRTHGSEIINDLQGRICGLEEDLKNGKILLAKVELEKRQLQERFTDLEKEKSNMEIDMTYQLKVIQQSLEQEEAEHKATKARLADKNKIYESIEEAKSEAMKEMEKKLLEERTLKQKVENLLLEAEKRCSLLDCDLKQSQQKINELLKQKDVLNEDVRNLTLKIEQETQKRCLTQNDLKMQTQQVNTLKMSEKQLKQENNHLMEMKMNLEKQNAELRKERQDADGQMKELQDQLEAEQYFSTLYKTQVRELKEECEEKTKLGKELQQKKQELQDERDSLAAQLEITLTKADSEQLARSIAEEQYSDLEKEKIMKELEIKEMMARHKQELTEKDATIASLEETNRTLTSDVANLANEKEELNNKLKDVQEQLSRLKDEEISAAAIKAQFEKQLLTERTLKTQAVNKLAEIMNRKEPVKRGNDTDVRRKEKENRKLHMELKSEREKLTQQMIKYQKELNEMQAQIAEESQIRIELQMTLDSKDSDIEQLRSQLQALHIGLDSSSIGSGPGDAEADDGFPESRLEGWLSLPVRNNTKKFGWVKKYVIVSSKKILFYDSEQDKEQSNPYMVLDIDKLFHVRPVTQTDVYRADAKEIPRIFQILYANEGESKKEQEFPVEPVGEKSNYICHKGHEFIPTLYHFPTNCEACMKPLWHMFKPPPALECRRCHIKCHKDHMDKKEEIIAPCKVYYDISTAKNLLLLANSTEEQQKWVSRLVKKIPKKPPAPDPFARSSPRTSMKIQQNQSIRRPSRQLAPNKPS

SMILES	pIC50 [1]	pIC50 [2]
NC[C@@H](C(=O)Nc1cc2ccncc2s1)c1ccc(CO[N+](=O)[O-])cc1 [Example 1, (S)-4-(3-amino-1-oxo-1-(thieno[2,3-c]pyridin-2-ylamino)prop-2-yl)benzyl nitrate]	9.30	7.28
NCC(C(=O)Nc1cc2ccncc2s1)c1ccc(OCC(CO[N+](=O)[O-])O[N+](=O)[O-])cc1 (stereo not shown) [Example 7, 3-(4-(3-amino-1-oxo-1-(thieno[2,3-c]pyridin-2-ylamino)prop-2-yl)phenoxy)propane-1,2-dinitrate]	8.66	8.06
NCC(C(=O)Nc1cc2ccncc2s1)c1ccc(CCCO[N+](=O)[O-])cc1 (stereo not shown) [Example 8, 3-(4-(3-amino-1-oxo-1-thieno[2,3-c]pyridin-2-ylamino)prop-2-yl)phenyl)propyl nitrate]	8.23	7.45
NC[C@@H](C(=O)Nc1cc2ccncc2s1)c1ccc(COC(=O)C2C[C@@H](O[N+](=O)[O-])[C@H](O[N+](=O)[O-])C2)cc1 [Example 37, (3R,4R)-4-((S)-3-amino-1-oxy-1-(thieno[2,3-c]pyridin-2-ylamino)propan-2-yl)benzyl 3,4-bis(nitrooxy)cyclopentane carboxylate]	8.84	
CN(C)C[C@@H](C(=O)Nc1cc2ccncc2s1)c1ccc(COC(=O)C(C)(CO[N+](=O)[O-])CO[N+](=O)[O-])cc1 [Example 40, (S)-4-(3-(dimethylamino)-1-oxo-1-(thieno[2,3-c]pyridin-2-ylamino)propan-2-yl)benzyl 2-methyl-3-(nitrooxy)-2-((nitrooxy)methyl)propionate]	8.69	

Continued, values first:

pIC50 [1]	pIC50 [2]	SMILES
8.99	7.52	NC[C@@H](C(=O)Nc1cc2ccncc2s1)c1ccc(COC(=O)CCCCO[N+](=O)[O-])cc1 [Example 9, (S)-4-(3-amino-1-oxo-1-(thieno[2,3-c]pyridin-2-ylamino)prop-2-yl)benzyl 5-(nitrooxy)valerate]
8.22	7.67	NC[C@@H](C(=O)Nc1cc2ccncc2s1)c1ccc(CCO[N+](=O)[O-])cc1 [Example 11, (S)-4-(3-amino-1-oxo-1-(thieno[2,3-c]pyridin-2-ylamino)propan-2-yl)phenethyl nitrate]
8.82	7.40	NC[C@@H](C(=O)Nc1cc2ccncc2s1)c1ccc(COC(=O)OCCCCO[N+](=O)[O-])cc1 [Example 13, (S)-4-(3-amino-1-oxo-1-(thieno[2,3-c]pyridin-2-ylamino)prop-2-yl)benzyl(4-(nitrooxy)butyl)carbonate]
7.71		NC[C@@H](C(=O)Nc1cc2ccncc2s1)c1ccc(COC(=O)C2CCC(CO[N+](=O)[O-])CC2)cc1 (stereo partly drawn) [Example 38, (1r,4S)-4-((S)-3-amino-1-oxy-1-(thieno[2,3-c]pyridin-2-ylamino)propan-2-yl)benzyl 4-((nitrooxy)methyl)cyclohexanecarboxylic acid]
7.53		NC[C@@H](C(=O)Nc1cc2ccncc2s1)c1ccc(COC(=O)[C@@H]2CCCN2CCO[N+](=O)[O-])cc1 [Example 39]
